Measurements as given in article PMC4005005 (ChemMedChem, 2014).

Target: T1, G9a (Homo sapiens, UniProt Q96KQ7)
T1 sequence (Q96KQ7 2-1210): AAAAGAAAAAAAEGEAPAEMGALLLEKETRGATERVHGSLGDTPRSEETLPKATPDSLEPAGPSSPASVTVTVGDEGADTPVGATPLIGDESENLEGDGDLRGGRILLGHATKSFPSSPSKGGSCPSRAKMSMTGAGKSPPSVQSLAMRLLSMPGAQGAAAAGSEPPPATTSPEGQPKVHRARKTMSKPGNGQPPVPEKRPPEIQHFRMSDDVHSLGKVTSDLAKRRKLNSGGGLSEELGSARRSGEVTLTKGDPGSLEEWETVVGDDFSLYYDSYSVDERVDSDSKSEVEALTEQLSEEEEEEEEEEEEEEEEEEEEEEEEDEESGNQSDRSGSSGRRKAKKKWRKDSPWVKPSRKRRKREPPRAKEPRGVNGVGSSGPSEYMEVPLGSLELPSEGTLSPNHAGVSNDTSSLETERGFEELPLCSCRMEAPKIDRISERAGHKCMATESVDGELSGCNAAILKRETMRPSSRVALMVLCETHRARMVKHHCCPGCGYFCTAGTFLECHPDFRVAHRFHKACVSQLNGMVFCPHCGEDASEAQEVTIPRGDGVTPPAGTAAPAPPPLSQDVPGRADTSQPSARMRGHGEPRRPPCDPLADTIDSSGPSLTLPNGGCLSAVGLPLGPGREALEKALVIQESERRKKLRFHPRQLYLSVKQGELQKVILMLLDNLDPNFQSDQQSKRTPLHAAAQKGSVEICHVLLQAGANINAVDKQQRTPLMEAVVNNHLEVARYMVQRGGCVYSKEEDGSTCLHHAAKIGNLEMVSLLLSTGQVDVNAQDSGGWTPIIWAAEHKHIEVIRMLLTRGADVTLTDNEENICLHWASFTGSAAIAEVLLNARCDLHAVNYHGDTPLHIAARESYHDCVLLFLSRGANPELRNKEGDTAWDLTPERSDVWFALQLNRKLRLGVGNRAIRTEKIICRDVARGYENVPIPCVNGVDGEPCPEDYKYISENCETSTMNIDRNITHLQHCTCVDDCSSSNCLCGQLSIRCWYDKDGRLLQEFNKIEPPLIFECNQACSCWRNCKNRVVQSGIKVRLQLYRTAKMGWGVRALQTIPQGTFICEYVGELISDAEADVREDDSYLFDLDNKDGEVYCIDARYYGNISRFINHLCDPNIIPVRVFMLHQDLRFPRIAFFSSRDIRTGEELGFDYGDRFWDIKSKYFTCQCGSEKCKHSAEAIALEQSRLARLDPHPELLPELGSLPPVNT
Experiment: scintillation proximity assay of 3H-methyl transfer to histone peptide
Format: biochemical

COc1cc2c(NC3CCN(CCCc4cn(CCOCCOCCOCCNC(=O)CCCC[C@H]5SC[C@H]6NC(=O)N[C@H]65)nn4)CC3)nc(C3CCCCC3)nc2cc1OCCCN1CCCC1 [compound 10, UNC0965]
IC50: < 2.5 nM
